Results reported in patent US10894817B2, “Fatty acid modified urocortin-2 analogs for the treatment of diabetes and chronic kidney disease” (priority 2016, dated 2021).
Marks after values point to notes of the source that are not given here. Values belong to the compound of their own block, whether it stands above or below them. Starred links: 1 amine or outer side, 2 acyl side, 3 side chain; linkers in the order of their positions; H or OH if unused. Residues, ends and D or L forms follow the SMILES beside them. Groups on a side chain read outwards from the residue. *: point of attachment. γGlu = O=C(O)[C@H](CCC(=O)[*:2])N[*:1]; Palmitoyl = CCCCCCCCCCCCCCCC(=O)*

Tests used:
human CRHR2b = molecular target: T1, human CRHR2b (Homo sapiens, UniProt Q13324); test: human CRHR2b cell-based cAMP assay; settings: cAMP assay; Table 26, compounds of Example 9; read-out: hCRHR2b Average EC50
T1 construct: expressed in transfected cells; host or cells: Chinese Hamster Ovary (CHO) cells, transient transfection
T1 sequence (Q13324 1-438 isoform Q13324-2): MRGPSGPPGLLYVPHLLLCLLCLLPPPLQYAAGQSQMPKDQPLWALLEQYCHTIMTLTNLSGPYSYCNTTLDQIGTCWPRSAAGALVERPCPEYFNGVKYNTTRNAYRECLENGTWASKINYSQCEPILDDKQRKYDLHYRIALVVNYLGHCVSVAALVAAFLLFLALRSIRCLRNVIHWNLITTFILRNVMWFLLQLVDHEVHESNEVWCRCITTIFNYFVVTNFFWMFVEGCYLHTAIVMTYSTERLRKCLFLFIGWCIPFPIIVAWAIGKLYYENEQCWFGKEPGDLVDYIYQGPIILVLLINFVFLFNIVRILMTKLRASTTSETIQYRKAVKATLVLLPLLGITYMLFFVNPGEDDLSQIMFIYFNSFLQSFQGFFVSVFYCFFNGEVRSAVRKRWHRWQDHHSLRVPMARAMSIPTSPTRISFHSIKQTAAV
Summary of the method: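 ED50 values are means ± SEM over several runs, curve-fitted from cAMP in pmol, calibrated against unlabeled-cAMP standards. Detection was HTRF competition, ratio 665/620 nm, after 30 min agonist exposure at 37 °C.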

[1] = test system: UniNx db/db AAV renin mice; test: Uninephrectomized db/db AAV renin model of diabetic nephropathy; assay type: in vivo
Description: The uninephrectomized db/db adeno-associated viral (AAV) renin model represents a progressive model of diabetic kidney disease with hypertension driven by an AAV renin transgene (Am J Physiol Regul Integr Comp Physiol. 309(5):R467-74, (2015)).
The uninephrectomy (UniNx) surgery on female db/db mice on a C57BLKS/J background (obtained from Harlan Laboratories) is performed by Harlan Laboratories at 4 weeks of age with removal of the right kidney to accelerate the diabetic kidney disease. Animals are received at 5 weeks of age and housed in micro-isolator cages at 3 mice per cage and are on a 12 hour light/dark cycle. All db/db mice are fed ad libitum with Purina special diet 5008 and allowed free access to autoclaved water.
Mice are acclimated for 7 weeks prior to administration of AAV Renin (5×10^9 GC) intravenously by the retro-orbital sinus to induce persistent hypertension. Randomization by urine albumin to creatinine ratio (ACR), blood glucose and body weight is done at 15 weeks of age (a point at which renal disease and pathology are established in this model based on observations) into 2 groups of 12 saline control mice and 33 mice to receive Lisinopril treatment.
Dosing with Lisinopril (30 mg/L) begins at 16 weeks of age. After 2 weeks of Lisinopril treatment, the 33 mice are randomized by urine ACR, blood glucose and body weight into 4 groups (one group of 9 mice and 3 groups of 8 mice).
In the 4 groups of UniNx db/db AAV renin mice receiving Lisinopril treatment, either 0.9% physiological saline for injection (“saline control” N=9) or different dose levels of Example 4 (7.2, 24 or 72 nmol/kg, N=8 per dose level) are dosed at 0.2 mL s.c. per injection beginning at 18 weeks of age and continued 3 times weekly for 12 weeks. Albumin and creatinine are measured in urine with a Roche Hitachi Modular Analytics P analyzer with Roche reagents for detection of albumin and creatinine.
For all the groups, the parameters measured are body weight, kidney weight, heart weight, urine albumin to creatinine ratio, serum creatinine and renal pathology scores for mesangial matrix expansion, glomerular fibrosis, tubular regeneration, interstitial inflammation and interstitial fibrosis.
At 15 and 27 weeks of age, blood (30 to 50 uL) from all the UniNx db/db AAV Renin mice is obtained from the tail vein and dropped onto a Precision PCx blood glucose sensor electrode strip (Abbott Laboratories) for blood glucose determination with a MediSense Precision PCx glucometer (Abbott Laboratories). Blood glucose data is used to block the UniNx db/db mice into equivalent groups. Body weight is determined at baseline and at termination with a Metler Toledo Balance. The heart and kidney are removed at necropsy and weighed on a Metler Toledo Balance. Blood (500 ul) is collected from the retro-orbital sinus at termination under isoflurane anesthesia. The clotted blood is centrifuged to obtain serum. Serum is analyzed for creatinine on a Roche Hitachi Modular Analytics P analyzer with reagents from Roche.
Urine is collected by a spot collection method to collect urine over a 2-4 hr time period. An individual mouse is placed on top of a 96 well polypropylene microplate and then covered by a Plexiglas chamber with holes for breathing but no access to food or water. At the end of the time period, the urine is removed from the plate with a micropipette and placed on ice, centrifuged and subjected to albumin and creatinine analysis. Urine albumin, creatinine and glucose are determined on a Roche Hitachi Modular Analytics P analyzer. Urine creatinine is determined with the Creatinine Plus reagent by Roche. For urine albumin, the Roche Microalbumin assay is modified to adapt the calibration curve for measuring urine albumin in mice. Albuminuria was defined as albumin to creatinine ratio (ACR).
Kidneys are removed at study termination, fixed in formalin and processed for paraffin sectioning according to standard methodology. […]

[2] = Lisinopril plus Saline, after 12 weeks, scale none (0) to severe (5)
[3] = UniNx db/db AAV renin mice, Lisinopril plus Saline, after 12 weeks
[4] = UniNx db/db AAV renin mice, Lisinopril plus Saline, baseline

- EC50 (human CRHR2b): 25.3 nM
SMILES: CCCCCCCCCCCCCCCC(=O)N[C@@H](CCC(=O)NCCCC[C@H](NC(=O)[C@H](CCC(N)=O)NC(=O)[C@H](CCC(=O)O)NC(=O)[C@H](CC(C)C)NC(=O)[C@H](CC(C)C)NC(=O)[C@@H](NC(=O)[C@H](CCC(N)=O)NC(=O)[C@H](CC(C)C)NC(=O)[C@H](CC(C)C)NC(=O)CNC(=O)[C@@H](NC(=O)[C@@H]1CCCN1C(=O)[C@@H](NC(=O)[C@H](CC(=O)O)NC(=O)[C@H](CC(C)C)NC(=O)[C@H](CO)NC(=O)[C@H](CC(C)C)NC(=O)[C@@H](NC(=O)[C@@H](N)[C@@H](C)CC)C(C)C)C(C)C)[C@@H](C)CC)[C@@H](C)CC)C(=O)N[C@@H](CCCCN)C(=O)N[C@@H](CCC(N)=O)C(=O)N[C@@H](CCC(=O)O)C(=O)N[C@@H](CCCCN)C(=O)N[C@@H](CCC(=O)O)C(=O)N[C@@H](CCCCN)C(=O)N[C@@H](CCC(N)=O)C(=O)N[C@@H](CCC(N)=O)C(=O)N[C@@H](C)C(=O)N[C@H](C(=O)N[C@H](C(=O)N[C@@H](CC(N)=O)C(=O)N[C@@H](C)C(=O)N[C@@H](CCCNC(=N)N)C(=O)N[C@H](C(=O)N[C@@H](CC(C)C)C(=O)N[C@@H](C)C(=O)N[C@@H](CCCNC(=N)N)C(=O)N[C@H](C(N)=O)C(C)C)[C@@H](C)CC)[C@@H](C)O)[C@@H](C)O)C(=O)O [Compound 24, IVLSLDVPIGLLQILLEQK*KQEKEKQQATTNARILARV-NH2] (H-IVLSLDVPIGLLQILLEQK([γGlu-Palmitoyl])KQEKEKQQATTNARILARV-NH2)

- EC50 (human CRHR2b): 27 nM
SMILES: CCCCCCCCCCCCCCCC(=O)N[C@@H](CCC(=O)NCCCC[C@H](NC(=O)[C@@H](NC(=O)[C@H](C)NC(=O)[C@H](CCC(N)=O)NC(=O)[C@H](CCC(N)=O)NC(=O)[C@H](CCCCN)NC(=O)[C@H](CCC(=O)O)NC(=O)[C@H](CCCCN)NC(=O)[C@H](CCC(=O)O)NC(=O)[C@H](CCC(N)=O)NC(=O)[C@H](CCCCN)NC(=O)[C@H](CCC(=O)O)NC(=O)[C@H](CCC(N)=O)NC(=O)[C@H](CCC(=O)O)NC(=O)[C@H](CC(C)C)NC(=O)[C@H](CC(C)C)NC(=O)[C@@H](NC(=O)[C@H](CCC(N)=O)NC(=O)[C@H](CC(C)C)NC(=O)[C@H](CC(C)C)NC(=O)CNC(=O)[C@@H](NC(=O)[C@@H]1CCCN1C(=O)[C@@H](NC(=O)[C@H](CC(=O)O)NC(=O)[C@H](CC(C)C)NC(=O)[C@H](CO)NC(=O)[C@H](CC(C)C)NC(=O)[C@@H](NC(=O)[C@@H](N)[C@@H](C)CC)C(C)C)C(C)C)[C@@H](C)CC)[C@@H](C)CC)[C@@H](C)O)C(=O)N[C@@H](CC(N)=O)C(=O)N[C@@H](C)C(=O)N[C@@H](CCCNC(=N)N)C(=O)N[C@H](C(=O)N[C@@H](CC(C)C)C(=O)N[C@@H](C)C(=O)N[C@@H](CCCNC(=N)N)C(=O)N[C@H](C(N)=O)C(C)C)[C@@H](C)CC)C(=O)O [Compound 39] (H-IVLSLDVPIGLLQILLEQEKQEKEKQQATK([γGlu-Palmitoyl])NARILARV-NH2)

- EC50 (human CRHR2b): 404 nM
SMILES: CCCCCCCCCCCCCCCC(=O)N[C@@H](CCC(=O)NCCCC[C@H](NC(=O)[C@H](CCC(N)=O)NC(=O)[C@H](CCCCN)NC(=O)[C@H](CCC(=O)O)NC(=O)[C@H](CCCCN)NC(=O)[C@H](CCC(=O)O)NC(=O)[C@H](CCC(N)=O)NC(=O)[C@H](CCCCN)NC(=O)[C@H](CCC(=O)O)NC(=O)[C@H](CCC(N)=O)NC(=O)[C@H](CCC(=O)O)NC(=O)[C@H](CC(C)C)NC(=O)[C@H](CC(C)C)NC(=O)[C@@H](NC(=O)[C@H](CCC(N)=O)NC(=O)[C@H](CC(C)C)NC(=O)[C@H](CC(C)C)NC(=O)CNC(=O)[C@@H](NC(=O)[C@@H]1CCCN1C(=O)[C@@H](NC(=O)[C@H](CC(=O)O)NC(=O)[C@H](CC(C)C)NC(=O)[C@H](CO)NC(=O)[C@H](CC(C)C)NC(=O)[C@@H](NC(=O)[C@@H](N)[C@@H](C)CC)C(C)C)C(C)C)[C@@H](C)CC)[C@@H](C)CC)C(=O)N[C@@H](C)C(=O)N[C@H](C(=O)N[C@H](C(=O)N[C@@H](CC(N)=O)C(=O)N[C@@H](C)C(=O)N[C@@H](CCCNC(=N)N)C(=O)N[C@H](C(=O)N[C@@H](CC(C)C)C(=O)N[C@@H](C)C(=O)N[C@@H](CCCNC(=N)N)C(=O)N[C@H](C(N)=O)C(C)C)[C@@H](C)CC)[C@@H](C)O)[C@@H](C)O)C(=O)O [Compound 35] (H-IVLSLDVPIGLLQILLEQEKQEKEKQK([γGlu-Palmitoyl])ATTNARILARV-NH2)

SMILES: NCCCC[C@H](N[C@@H](CCc1ccccc1)C(=O)O)C(=O)N1CCC[C@H]1C(=O)O [Lisinopril]
- Glomerular Fibrosis, pathology score [1, 2]: 1.4 ± 0.2 ^a
- Interstitial Fibrosis, pathology score [1, 2]: 2.0 ± 0.3 ^
- Interstitial Inflammation, pathology score [1, 2]: 1.1 ± 0.3 ^a
- Mesangial Matrix Expansion, pathology score [1, 2]: 2.1 ± 0.1 ^a
- Tubular Regeneration, pathology score [1, 2]: 2.0 ± 0.2 ^a
- Albumin to Creatinine Ratio (ACR) ([1]; Lisinopril plus Saline, week 0 of treatment with Example 4): 15203 ± 2835 ^
- Albumin to Creatinine Ratio (ACR) ([1]; Lisinopril plus Saline, week 1): 16491 ± 3362 ^
- Albumin to Creatinine Ratio (ACR) ([1]; Lisinopril plus Saline, week 2): 16160 ± 4162 ^a
- Albumin to Creatinine Ratio (ACR) ([1]; Lisinopril plus Saline, week 3): 13069 ± 3295 ^a
- Albumin to Creatinine Ratio (ACR) ([1]; Lisinopril plus Saline, week 6): 11584 ± 3132 ^a
- Albumin to Creatinine Ratio (ACR) ([1]; Lisinopril plus Saline, week 8): 12484 ± 4626 ^a
- Albumin to Creatinine Ratio (ACR) ([1]; Lisinopril plus Saline, week 10): 20429 ± 4998 ^a
- Albumin to Creatinine Ratio (ACR) ([1]; Lisinopril plus Saline, week 12): 19075 ± 6268 ^a
- deaths over the course of the study ([1]; Lisinopril plus saline group (N=9)): 2
- Final Blood Glucose [1, 3]: 466 mg/dL
- Final Body Weight [1, 3]: 61.8 g
- Heart Weight [1, 3]: 227 mgs
- Kidney Weight [1, 3]: 392 mgs
- Serum Creatinine [1, 3]: 0.130 mg/dL
- Initial Blood Glucose [1, 4]: 444 mg/dL
- Initial Body Weight [1, 4]: 61.6 g
